For orientation: IC50 means the concentration that inhibits the measured activity by half.

From US20210198277A1, “AMINE-SUBSTITUTED ARYL OR HETEROARYL COMPOUNDS” (Epizyme, Inc., priority 2016, published 2021) come the findings set out here.

The assay has as its target T1, EHMT2 (Homo sapiens, UniProt Q96KQ7).
T1 construct: host or cells: MDA-MB-231
T1 sequence (Q96KQ7 1-1210): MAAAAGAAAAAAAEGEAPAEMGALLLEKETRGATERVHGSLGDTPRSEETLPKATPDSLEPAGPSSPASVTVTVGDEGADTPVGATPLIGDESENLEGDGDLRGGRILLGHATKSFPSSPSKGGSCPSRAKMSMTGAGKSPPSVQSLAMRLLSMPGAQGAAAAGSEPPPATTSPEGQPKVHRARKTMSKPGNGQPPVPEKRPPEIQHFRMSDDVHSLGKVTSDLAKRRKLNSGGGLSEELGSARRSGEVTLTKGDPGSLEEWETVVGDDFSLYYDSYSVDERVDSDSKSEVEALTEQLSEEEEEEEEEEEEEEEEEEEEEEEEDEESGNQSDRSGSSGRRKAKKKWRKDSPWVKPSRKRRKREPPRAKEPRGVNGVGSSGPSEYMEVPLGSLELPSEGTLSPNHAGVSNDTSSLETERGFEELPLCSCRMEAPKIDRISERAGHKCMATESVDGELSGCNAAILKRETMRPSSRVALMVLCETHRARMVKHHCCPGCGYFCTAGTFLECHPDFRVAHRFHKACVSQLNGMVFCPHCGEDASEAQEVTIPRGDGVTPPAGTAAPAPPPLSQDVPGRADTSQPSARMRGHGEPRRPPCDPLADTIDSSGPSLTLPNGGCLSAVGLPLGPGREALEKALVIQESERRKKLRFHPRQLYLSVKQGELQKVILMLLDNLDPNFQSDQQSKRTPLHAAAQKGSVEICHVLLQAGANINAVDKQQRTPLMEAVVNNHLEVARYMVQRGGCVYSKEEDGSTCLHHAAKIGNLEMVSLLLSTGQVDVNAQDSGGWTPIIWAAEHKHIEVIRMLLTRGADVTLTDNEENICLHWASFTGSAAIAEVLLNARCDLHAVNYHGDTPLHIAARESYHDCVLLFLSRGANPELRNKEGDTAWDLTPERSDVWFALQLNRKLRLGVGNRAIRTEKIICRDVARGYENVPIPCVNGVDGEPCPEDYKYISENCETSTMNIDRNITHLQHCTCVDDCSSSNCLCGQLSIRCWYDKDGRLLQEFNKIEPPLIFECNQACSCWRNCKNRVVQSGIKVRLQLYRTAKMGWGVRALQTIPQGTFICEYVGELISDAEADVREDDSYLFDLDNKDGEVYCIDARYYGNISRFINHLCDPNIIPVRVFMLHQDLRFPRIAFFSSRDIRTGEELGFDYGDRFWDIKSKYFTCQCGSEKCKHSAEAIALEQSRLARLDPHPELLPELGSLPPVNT
The experiment in a line: MDA-MB-231 H3K9me2 in-cell Western assay (EHMT2 ICW). The class given is cell-based. As to conditions: Table II; MDA-MB-231 H3K9me2 in-cell Western; read-out: EHMT2 ICW (IC50 μM). From the text:
RPMI/Glutamax medium, Penicillin-Streptomycin, Heat Inactivated Fetal Bovine Serum, and D-PBS were purchased from Life Technologies (Grand Island, N.Y., USA). Odyssey blocking buffer, 800CW goat anti-mouse IgG (H+L) antibody, and Licor Odyssey Infrared Scanner were purchased from Licor Biosciences, Lincoln, Nebr., USA. […] 16% Paraformaldehyde was purchased from Electron Microscopy Sciences, Hatfield, Pa., USA).MDA-MB-231 cells were maintained in complete growth medium (RPMI supplemented with 10% v/v heat inactivated fetal bovine serum) and cultured at 37° C. under 5% CO2. UNC0638 was purchased from Sigma-Aldrich (St. Louis, Mo., USA).
Compound (100 nL) was added directly to 384-well cell plate. MDA-MB-231 cells (ATCC) were seeded in assay medium (RPMI/Glutamax supplemented with 10% v/v heat inactivated fetal bovine serum and 1% Penicillin/Streptomycin, Life Technologies) at a concentration of 3,000 cells per well to a Poly-D-Lysine coated 384-well cell culture plate with 50 μL per well. […] Plates were incubated at room temperature for 30 minutes and then incubated at 37° C., 5% CO2 for additional 48 hours. After the incubation, 50 μL per well of 8% paraformaldehyde (Electron Microscopy Sciences) in PBS was added to the plates and incubated at room temperature for 20 minutes. […] Next, 60 μL per well of Odyssey blocking buffer (Licor Biosciences) was added to each plate and incubated for 1 hour at room temperature. Blocking buffer was removed and 20 μL of monoclonal primary antibody α-H3K9me2 (Abcam) diluted 1:800 in Odyssey buffer with 0.1% Tween 20 (v/v) were added and plates were incubated overnight (16 hours) at 4° C. Plates were washed 5 times with 100 μL per well of wash buffer. Next 20 μL per well of secondary antibody was added (1:500 800CW donkey anti-mouse IgG (H+L) antibody (Licor Biosciences), 1:1000 DRAQ5 (Cell Signaling Technology) in Odyssey buffer with 0.1% Tween 20 (v/v)) and incubated for 1 hour at room temperature. The plates were washed 5 times with 100 μL per well wash buffer then 2 times with 100 μL per well of water. Plates were allowed to dry at room temperature then imaged on a Licor Odyssey Infrared Scanner (Licor Biosciences) which measured integrated intensity at 700 nm and 800 nm wavelengths. Both 700 and 800 channels were scanned.
First, the ratio for each well was determined by:
The average of the ratio values for each well was calculated and used to determine the percent inhibition for each test well in the plate. Control compound was serially diluted three-fold in DMSO for a total of 10 test concentrations beginning at 1 μM. Percent inhibition was calculated as: […]
IC50 curves were generated using triplicate wells per concentration of compound. […] IC50 values were calculated using a non-linear regression (variable slope-four parameter fit model) with by the following formula: […]

Where a name gives a salt, the structure may show the parent alone. Some results are limits rather than exact numbers.

Consider `COc1ccc(Nc2nccc(NC(C)(C)C)n2)cc1OCCCN1CCCC1` [Compound 6, N^4-(tert-butyl)-N^2-(4-methoxy-3-(3-(pyrrolidin-1-yl)propoxy)phenyl)pyrimidine-2,4-diamine], for which the IC50 was 1 to 10 µM.
`COc1ccc(Nc2ccnc(NCC3CCNCC3)n2)cc1OCCCN1CCCC1` [Compound 7, 4-N-[4-methoxy-3-[3-(pyrrolidin-1-yl)propoxy]phenyl]-2-N-(piperidin-4-ylmethyl)pyrimidine-2,4-diamine hydrochloride]: the IC50 lay within 1 to 10 µM.
Turning to `CC(=O)N1CCC(CNc2ccnc(Nc3ccc(Cl)c(OCCCN4CCCC4)c3)n2)CC1` [Compound 8, 1-(4-(((2-((4-chloro-3-(3-(pyrrolidin-1-yl)propoxy)phenyl)amino)pyrimidin-4-yl)amino)methyl)piperidin-1-yl)ethan-1-one], the IC50 is 1 to 10 µM.
Under `CNC(=O)c1cnc(Nc2ccc(OC)c(OCCCN3CCCC3)c2)nc1` [Compound 9, 2-((4-methoxy-3-(3-(pyrrolidin-1-yl)propoxy)phenyl)amino)-N-methylpyrimidine-5-carboxamide] stands more than 10 µM.
The same measure for `COc1ccc(Nc2cc(NCC3CCNCC3)ccn2)cc1OCCCN1CCCC1` [Compound 10, N^2-(4-methoxy-3-(3-(pyrrolidin-1-yl)propoxy)phenyl)-N^4-(piperidin-4-ylmethyl)pyridine-2,4-diamine]: more than 10 µM.
Under `COc1cnc(Nc2ccnc(CNC3CCOCC3)c2)cc1OCCCN1CCCC1` [Compound 12, 5-methoxy-4-(3-(pyrrolidin-1-yl)propoxy)-N-(2-(((tetrahydro-2H-pyran-4-yl)amino)methyl)pyridin-4-yl)pyridin-2-amine] stands more than 10 µM.
Take `COc1ccc(Nc2ccnc(N(C)CC3CCN(C(C)=O)CC3)c2)cc1OCCCN1CCCC1` [Compound 13, 1-(4-(((4-((4-methoxy-3-(3-(pyrrolidin-1-yl)propoxy)phenyl)amino)pyridin-2-yl)(methyl)amino)methyl)piperidin-1-yl)ethan-1-one]: the IC50 was more than 10 µM.
Regarding `COc1ccc(Nc2nccc(OCC3CCN(C(C)=O)CC3)n2)cc1OCCCN1CCCC1` [Compound 14, 1-(4-(((2-((4-methoxy-3-(3-(pyrrolidin-1-yl)propoxy)phenyl)amino)pyrimidin-4-yl)oxy)methyl)piperidin-1-yl)ethan-1-one], the IC50 is more than 10 µM.
On to `COc1ccc(Nc2nccc(NCC3CCNCC3)n2)cc1OCC(O)CN1CCCC1` (centres unmarked) [Compound 15, 1-(2-methoxy-5-((4-((piperidin-4-ylmethyl)amino)pyrimidin-2-yl)amino)phenoxy)-3-(pyrrolidin-1-yl)propan-2-ol], for which the IC50 was more than 10 µM.
With `COc1ccc(Nc2nc(NCC3CCNCC3)cc(N3CCCC3)n2)cc1OCCCN1CCCC1` [Compound 103], the IC50 is more than 10 µM.
`COc1ccc(Nc2cc(CNC3CCNCC3)n(C)n2)cc1OCCCN1CCCC1` [Compound 126]: the IC50 was more than 10 µM.
As to `COc1ccc(Nc2cc(CNC3CCOCC3)n(C)n2)cc1OCCCN1CCCC1` [Compound 127], the IC50 was more than 10 µM.
The same measure for `COc1ccc(Nc2nccc(N3CCc4[nH]ncc4C3)n2)cc1OCCCN1CCCC1` [Compound 128]: more than 10 µM; for `COc1ccc(Nc2nccc(-c3c(C)n[nH]c3C)n2)cc1OCCCN1CCCC1` [Compound 129]: more than 10 µM.
With `COc1ccc(Nc2nccc(-c3c(C)noc3C)n2)cc1OCCCN1CCCC1` [Compound 130], the IC50 is more than 10 µM.
The same measure for `COc1ccc(Nc2nccc(-c3c[nH]nc3C)n2)cc1OCCCN1CCCC1` [Compound 131]: more than 10 µM; for `COc1ccc(Nc2nccc(N3CCN(C)C(=O)C3)n2)cc1OCCCN1CCCC1` [Compound 132]: more than 10 µM; for `COc1ccc(Nc2nccc(N3CCCNC(=O)C3)n2)cc1OCCCN1CCCC1` [Compound 133]: more than 10 µM.
The same measure for `COc1ccc(Nc2nccc(N3CCc4nc[nH]c(=O)c4C3)n2)cc1OCCCN1CCCC1` [Compound 134]: more than 10 µM.
With `COc1ccc(Nc2nccc(N(C)Cc3cccnc3)n2)cc1OCCCN1CCCC1` [Compound 135], the IC50 is more than 10 µM.
